From PubChem BioAssay AID1963836 (Molecular Pharmacology Branch, DTP, NCI, 2024)
pIC50: −log10 of the molar value.

Test system: 857933-349-R-J2-PDC complex spheroid viability
Experiment: Anticancer human tumor 857933-349-R-J2-PDC patient-derived colon adenocarcinoma cell line growth inhibition [POLQ]
Details: for pIC50: curve of first compound; for viability, T/C: stronger effect = lower value
Outline: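 Complex spheroid viability model combining PDC tumour cells with endothelial (HUVEC) and MSC stromal cells. Novobiocin, ART-558 or RP6685 were tested singly and in combination with standard and investigational anticancer drugs. Each was titrated in half-log steps from near clinical Cmax, or from 10 microM where Cmax was unknown.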

[1] = second compound 0.0316 µM, first compound 0.0316 µM
[2] = second compound 0.0316 µM, first compound 0.1 µM
[3] = second compound 0.1 µM, first compound 0.0316 µM
[4] = second compound 0.1 µM, first compound 0.1 µM
[5] = second compound 0.316 µM, first compound 0.0316 µM
[6] = second compound 0.316 µM, first compound 0.1 µM
[7] = second compound 1 µM, first compound 0.0316 µM
[8] = second compound 1 µM, first compound 0.1 µM
[9] = second compound 3.16 µM, first compound 0.0316 µM
[10] = second compound 3.16 µM, first compound 0.1 µM
[11] = second compound 10 µM, first compound 0.0316 µM
[12] = second compound 10 µM, first compound 0.1 µM
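Also: spheroids exposed to compounds for seven days before readout.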

`CC1COCCN1c1cc(C2(S(C)(=N)=O)CC2)nc(-c2ccnc3[nH]ccc23)n1` (centres undefined) + Cc1cccc(N(C)C(=O)C2C(O)CCN2c2nc(C)cc(C(F)(F)F)c2C#N)c1 gave a pIC50 (second compound 0.0316 µM) of 5.49, a pIC50 (second compound 0.1 µM) of 5.41 and a pIC50 (second compound 0.316 µM) of 5.57. It also gave a pIC50 (second compound 1 µM) of 5.36, a pIC50 (second compound 3.16 µM) of 5.26 and a pIC50 (second compound 10 µM) of 5.32. It also gave a viability, T/C [1] of 97.9%, a viability, T/C [2] of 105% and a viability, T/C (second compound 0.0316 µM, first compound 0.316 µM) of 95%. For the same compound, the viability, T/C (second compound 0.0316 µM, first compound 1 µM) was 78.2%, the viability, T/C (second compound 0.0316 µM, first compound 3.16 µM) was 50.4% and the viability, T/C (second compound 0.0316 µM, first compound 10 µM) was 36.4%. For the same compound, the viability, T/C [3] was 88.6%, the viability, T/C [4] was 112% and the viability, T/C (second compound 0.1 µM, first compound 0.316 µM) was 87.4%. For the same compound, the viability, T/C (second compound 0.1 µM, first compound 1 µM) was 76.3%, the viability, T/C (second compound 0.1 µM, first compound 3.16 µM) was 55.2% and the viability, T/C (second compound 0.1 µM, first compound 10 µM) was 32.5%. It also gave a viability, T/C [5] of 75%, a viability, T/C [6] of 81.5% and a viability, T/C (second compound 0.316 µM, first compound 0.316 µM) of 101%. It also gave a viability, T/C (second compound 0.316 µM, first compound 1 µM) of 69.8%, a viability, T/C (second compound 0.316 µM, first compound 3.16 µM) of 48.7% and a viability, T/C (second compound 0.316 µM, first compound 10 µM) of 35.4%. The viability, T/C [7] was 92.9%, the viability, T/C [8] was 91.7% and the viability, T/C (second compound 1 µM, first compound 0.316 µM) was 102%. It also gave a viability, T/C (second compound 1 µM, first compound 1 µM) of 74.8%, a viability, T/C (second compound 1 µM, first compound 3.16 µM) of 57.4% and a viability, T/C (second compound 1 µM, first compound 10 µM) of 36.6%. It also gave a viability, T/C [9] of 95.5%, a viability, T/C [10] of 98.2% and a viability, T/C (second compound 3.16 µM, first compound 0.316 µM) of 84.4%. The viability, T/C (second compound 3.16 µM, first compound 1 µM) was 78.8%, the viability, T/C (second compound 3.16 µM, first compound 3.16 µM) was 52.3% and the viability, T/C (second compound 3.16 µM, first compound 10 µM) was 45.8%. The viability, T/C [11] was 80.1%, the viability, T/C [12] was 84.7% and the viability, T/C (second compound 10 µM, first compound 0.316 µM) was 88.6%. The viability, T/C (second compound 10 µM, first compound 1 µM) was 72.5%, the viability, T/C (second compound 10 µM, first compound 3.16 µM) was 57.4% and the viability, T/C (second compound 10 µM, first compound 10 µM) was 38.2%.
For `CC[C@@]1(O)C(=O)OCc2c1cc1n(c2=O)Cc2cc3c(CN(C)C)c(O)ccc3nc2-1` + COC1C(OC(N)=O)C(O)C(Oc2ccc3c(O)c(NC(=O)c4ccc(O)c(CC=C(C)C)c4)c(=O)oc3c2C)OC1(C)C, the pIC50 (second compound 0.0316 µM) was under 7.00, the pIC50 (second compound 0.1 µM) was 7.09 and the pIC50 (second compound 0.316 µM) was under 7.00. The pIC50 (second compound 1 µM) was under 7.00, the pIC50 (second compound 3.16 µM) was under 7.00 and the pIC50 (second compound 10 µM) was under 7.00. It also gave a viability, T/C (second compound 0.0316 µM, first compound 0.000316 µM) of 117%, a viability, T/C (second compound 0.0316 µM, first compound 0.001 µM) of 107% and a viability, T/C (second compound 0.0316 µM, first compound 0.00316 µM) of 97.6%. The viability, T/C (second compound 0.0316 µM, first compound 0.01 µM) was 84.8%, the viability, T/C [1] was 83% and the viability, T/C [2] was 50.7%. It also gave a viability, T/C (second compound 0.1 µM, first compound 0.000316 µM) of 105%, a viability, T/C (second compound 0.1 µM, first compound 0.001 µM) of 93.3% and a viability, T/C (second compound 0.1 µM, first compound 0.00316 µM) of 88.5%. It also gave a viability, T/C (second compound 0.1 µM, first compound 0.01 µM) of 80%, a viability, T/C [3] of 71% and a viability, T/C [4] of 44.2%. For the same compound, the viability, T/C (second compound 0.316 µM, first compound 0.000316 µM) was 120%, the viability, T/C (second compound 0.316 µM, first compound 0.001 µM) was 86% and the viability, T/C (second compound 0.316 µM, first compound 0.00316 µM) was 94.4%. It also gave a viability, T/C (second compound 0.316 µM, first compound 0.01 µM) of 76.1%, a viability, T/C [5] of 88.5% and a viability, T/C [6] of 50.4%. For the same compound, the viability, T/C (second compound 1 µM, first compound 0.000316 µM) was 138%, the viability, T/C (second compound 1 µM, first compound 0.001 µM) was 83.5% and the viability, T/C (second compound 1 µM, first compound 0.00316 µM) was 86%. The viability, T/C (second compound 1 µM, first compound 0.01 µM) was 72%, the viability, T/C [7] was 87.1% and the viability, T/C [8] was 49.7%. The viability, T/C (second compound 3.16 µM, first compound 0.000316 µM) was 128%, the viability, T/C (second compound 3.16 µM, first compound 0.001 µM) was 102% and the viability, T/C (second compound 3.16 µM, first compound 0.00316 µM) was 79.4%. For the same compound, the viability, T/C (second compound 3.16 µM, first compound 0.01 µM) was 90.7%, the viability, T/C [9] was 65.9% and the viability, T/C [10] was 44.3%. It also gave a viability, T/C (second compound 10 µM, first compound 0.000316 µM) of 136%, a viability, T/C (second compound 10 µM, first compound 0.001 µM) of 123% and a viability, T/C (second compound 10 µM, first compound 0.00316 µM) of 69.3%. For the same compound, the viability, T/C (second compound 10 µM, first compound 0.01 µM) was 96.3%, the viability, T/C [11] was 81.6% and the viability, T/C [12] was 45.4%.
